Assay results published in the supplement of paper PMC10307832.

How the values were obtained:
Assay in all cases: relative viability (nuclei count vs DMSO), 5 days (fraction); higher = more cells survive
A-427 = system: A-427
Procedure, shortened: (§1)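 A single step with final 0.05% Triton X-100, 1% formaldehyde and 1 ug/ml Hoechst fixed the cells and stained nuclei 5 days after treatment. Lung cancer cell lines in 1536-well plates had been treated by pin tool the day after seeding with one drug alone or a fixed anchor-drug dose plus five library-drug doses (not always all listed) in √10 steps, and nuclei were counted on 4× images. Relative viability is the ratio of nuclei in treated wells to nuclei in vehicle wells, taken as the median of duplicate plates.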

ABC-1 = system: ABC-1
Procedure, shortened: as §1

CAL-12T = system: CAL-12T
Procedure, shortened: as §1

H3255 = system: H3255
Procedure, shortened: as §1

LCLC-97TM1 = system: LCLC-97TM1
Procedure, shortened: as §1

LK-2 = system: LK-2
Procedure, shortened: as §1

NCI-H1355 = system: NCI-H1355
Procedure, shortened: as §1

NCI-H1395 = system: NCI-H1395
Procedure, shortened: as §1

NCI-H1651 = system: NCI-H1651
Procedure, shortened: as §1

NCI-H1666 = system: NCI-H1666
Procedure, shortened: as §1

NCI-H1915 = system: NCI-H1915
Procedure, shortened: as §1

NCI-H2085 = system: NCI-H2085
Procedure, shortened: as §1

NCI-H2087 = system: NCI-H2087
Procedure, shortened: as §1

NCI-H2228 = system: NCI-H2228
Procedure, shortened: as §1

NCI-H322M = system: NCI-H322M
Procedure, shortened: as §1

NCI-H358 = system: NCI-H358
Procedure, shortened: as §1

NCI-H661 = system: NCI-H661
Procedure, shortened: as §1

NCI-H838 = system: NCI-H838
Procedure, shortened: as §1

PC-14 = system: PC-14
Procedure, shortened: as §1

PC-3 [JPC-3] = system: PC-3 [JPC-3]
Procedure, shortened: as §1

SK-MES-1 = system: SK-MES-1
Procedure, shortened: as §1

UMC-11 = system: UMC-11
Procedure, shortened: as §1

Q: Which relative viability (A-427; first compound 5 µM) does the source give for `O=C(O)CCCCC(CCSCc1ccccc1)SCc1ccccc1` (stereo not drawn) [CPI-613] + COc1cc2c(Oc3ccc(NC(=O)C4(C(=O)Nc5ccc(F)cc5)CC4)cc3F)ccnc2cc1OCCCN1CCOCC1 [Foretinib] (partner 0.25 µM) here?
A: 1.14

Q: What about the relative viability (A-427; first compound 15.81 µM) of the same molecule?
A: 1.11

Q: And the relative viability (A-427; first compound 50 µM)?
A: 0.86

Q: What about the relative viability (A-427; first compound 158.11 µM) of the same molecule?
A: 0.526

Q: And the relative viability (A-427; first compound 500 µM)?
A: 0.131

Q: And the relative viability (ABC-1; first compound 5 µM)?
A: 1.14

Q: And the relative viability (ABC-1; first compound 15.81 µM)?
A: 0.929

Q: What about the relative viability (ABC-1; first compound 50 µM) of the same molecule?
A: 0.996

Q: And the relative viability (ABC-1; first compound 158.11 µM)?
A: 0.243

Q: And the relative viability (ABC-1; first compound 500 µM)?
A: 0.0969

Q: What about the relative viability (CAL-12T; first compound 5 µM) of the same molecule?
A: 0.981

Q: And the relative viability (CAL-12T; first compound 15.81 µM)?
A: 0.89

Q: What about the relative viability (CAL-12T; first compound 50 µM) of the same molecule?
A: 1.11

Q: And the relative viability (CAL-12T; first compound 158.11 µM)?
A: 0.142

Q: What about the relative viability (CAL-12T; first compound 500 µM) of the same molecule?
A: 0.015

Q: What about the relative viability (H3255; first compound 5 µM) of the same molecule?
A: 0.887

Q: And the relative viability (H3255; first compound 15.81 µM)?
A: 0.685

Q: What about the relative viability (H3255; first compound 50 µM) of the same molecule?
A: 0.89

Q: And the relative viability (H3255; first compound 500 µM)?
A: 0.785

Q: And the relative viability (LCLC-97TM1; first compound 5 µM)?
A: 0.95

Q: And the relative viability (LCLC-97TM1; first compound 15.81 µM)?
A: 0.935

Q: What about the relative viability (LCLC-97TM1; first compound 50 µM) of the same molecule?
A: 0.926

Q: And the relative viability (LCLC-97TM1; first compound 158.11 µM)?
A: 0.324

Q: What about the relative viability (LCLC-97TM1; first compound 500 µM) of the same molecule?
A: 0.0466

Q: What about the relative viability (LK-2; first compound 5 µM) of the same molecule?
A: 1.45

Q: And the relative viability (LK-2; first compound 15.81 µM)?
A: 1.18

Q: And the relative viability (LK-2; first compound 50 µM)?
A: 1.16

Q: What about the relative viability (LK-2; first compound 158.11 µM) of the same molecule?
A: 1.06

Q: What about the relative viability (LK-2; first compound 500 µM) of the same molecule?
A: 0.126

Q: And the relative viability (NCI-H1355; first compound 5 µM)?
A: 0.941

Q: What about the relative viability (NCI-H1355; first compound 15.81 µM) of the same molecule?
A: 0.94

Q: What about the relative viability (NCI-H1355; first compound 50 µM) of the same molecule?
A: 0.998

Q: And the relative viability (NCI-H1355; first compound 158.11 µM)?
A: 0.455

Q: What about the relative viability (NCI-H1355; first compound 500 µM) of the same molecule?
A: 0.137

Q: And the relative viability (NCI-H1395; first compound 5 µM)?
A: 0.973

Q: What about the relative viability (NCI-H1395; first compound 15.81 µM) of the same molecule?
A: 0.971

Q: And the relative viability (NCI-H1395; first compound 50 µM)?
A: 0.916

Q: And the relative viability (NCI-H1395; first compound 158.11 µM)?
A: 0.94

Q: What about the relative viability (NCI-H1395; first compound 500 µM) of the same molecule?
A: 0.961

Q: And the relative viability (NCI-H1651; first compound 5 µM)?
A: 0.794

Q: What about the relative viability (NCI-H1651; first compound 15.81 µM) of the same molecule?
A: 0.838

Q: What about the relative viability (NCI-H1651; first compound 50 µM) of the same molecule?
A: 0.974

Q: What about the relative viability (NCI-H1651; first compound 158.11 µM) of the same molecule?
A: 0.295

Q: And the relative viability (NCI-H1651; first compound 500 µM)?
A: 0.088

Q: And the relative viability (NCI-H1666; first compound 5 µM)?
A: 0.944

Q: What about the relative viability (NCI-H1666; first compound 15.81 µM) of the same molecule?
A: 0.901

Q: What about the relative viability (NCI-H1666; first compound 50 µM) of the same molecule?
A: 0.971

Q: And the relative viability (NCI-H1666; first compound 158.11 µM)?
A: 0.397

Q: What about the relative viability (NCI-H1666; first compound 500 µM) of the same molecule?
A: 0.206

Q: What about the relative viability (NCI-H1915; first compound 5 µM) of the same molecule?
A: 1.04

Q: And the relative viability (NCI-H1915; first compound 15.81 µM)?
A: 1.09

Q: What about the relative viability (NCI-H1915; first compound 50 µM) of the same molecule?
A: 1.06

Q: What about the relative viability (NCI-H1915; first compound 158.11 µM) of the same molecule?
A: 0.309

Q: And the relative viability (NCI-H1915; first compound 500 µM)?
A: 0.132

Q: And the relative viability (NCI-H2085; first compound 5 µM)?
A: 0.767

Q: What about the relative viability (NCI-H2085; first compound 15.81 µM) of the same molecule?
A: 0.927

Q: What about the relative viability (NCI-H2085; first compound 50 µM) of the same molecule?
A: 0.933

Q: And the relative viability (NCI-H2085; first compound 158.11 µM)?
A: 0.286

Q: What about the relative viability (NCI-H2085; first compound 500 µM) of the same molecule?
A: 0.0979

Q: What about the relative viability (NCI-H2087; first compound 5 µM) of the same molecule?
A: 1.09

Q: What about the relative viability (NCI-H2087; first compound 15.81 µM) of the same molecule?
A: 1.11

Q: What about the relative viability (NCI-H2087; first compound 50 µM) of the same molecule?
A: 1.05

Q: What about the relative viability (NCI-H2087; first compound 158.11 µM) of the same molecule?
A: 0.0825

Q: And the relative viability (NCI-H2087; first compound 500 µM)?
A: 0.0183

Q: What about the relative viability (NCI-H2228; first compound 5 µM) of the same molecule?
A: 0.719

Q: What about the relative viability (NCI-H2228; first compound 15.81 µM) of the same molecule?
A: 0.948

Q: What about the relative viability (NCI-H2228; first compound 50 µM) of the same molecule?
A: 0.78

Q: What about the relative viability (NCI-H2228; first compound 158.11 µM) of the same molecule?
A: 0.332

Q: And the relative viability (NCI-H2228; first compound 500 µM)?
A: 0.088

Q: And the relative viability (NCI-H322M; first compound 5 µM)?
A: 0.969

Q: And the relative viability (NCI-H322M; first compound 15.81 µM)?
A: 0.972

Q: What about the relative viability (NCI-H322M; first compound 50 µM) of the same molecule?
A: 1.04

Q: And the relative viability (NCI-H322M; first compound 158.11 µM)?
A: 0.689

Q: And the relative viability (NCI-H322M; first compound 500 µM)?
A: 0.0324

Q: What about the relative viability (NCI-H358; first compound 15.81 µM) of the same molecule?
A: 0.648

Q: What about the relative viability (NCI-H358; first compound 50 µM) of the same molecule?
A: 0.713

Q: And the relative viability (NCI-H358; first compound 158.11 µM)?
A: 0.369

Q: And the relative viability (NCI-H358; first compound 500 µM)?
A: 0.0356

Q: What about the relative viability (NCI-H661; first compound 5 µM) of the same molecule?
A: 0.982

Q: And the relative viability (NCI-H661; first compound 15.81 µM)?
A: 1.06

Q: And the relative viability (NCI-H661; first compound 50 µM)?
A: 0.841

Q: And the relative viability (NCI-H661; first compound 158.11 µM)?
A: 0.371

Q: And the relative viability (NCI-H661; first compound 500 µM)?
A: 0.142

Q: What about the relative viability (NCI-H838; first compound 5 µM) of the same molecule?
A: 0.98

Q: What about the relative viability (NCI-H838; first compound 15.81 µM) of the same molecule?
A: 1.02

Q: And the relative viability (NCI-H838; first compound 50 µM)?
A: 1.03

Q: And the relative viability (NCI-H838; first compound 158.11 µM)?
A: 0.657

Q: And the relative viability (NCI-H838; first compound 500 µM)?
A: 0.116

Q: And the relative viability (PC-14; first compound 5 µM)?
A: 0.953

Q: What about the relative viability (PC-14; first compound 15.81 µM) of the same molecule?
A: 0.862

Q: And the relative viability (PC-14; first compound 50 µM)?
A: 0.852

Q: And the relative viability (PC-14; first compound 158.11 µM)?
A: 0.845

Q: What about the relative viability (PC-14; first compound 500 µM) of the same molecule?
A: 0.991

Q: What about the relative viability (PC-3 [JPC-3]; first compound 5 µM) of the same molecule?
A: 0.973

Q: What about the relative viability (PC-3 [JPC-3]; first compound 15.81 µM) of the same molecule?
A: 0.899

Q: What about the relative viability (PC-3 [JPC-3]; first compound 50 µM) of the same molecule?
A: 0.916

Q: And the relative viability (PC-3 [JPC-3]; first compound 158.11 µM)?
A: 0.163

Q: What about the relative viability (PC-3 [JPC-3]; first compound 500 µM) of the same molecule?
A: 0.139

Q: What about the relative viability (SK-MES-1; first compound 5 µM) of the same molecule?
A: 0.999

Q: What about the relative viability (SK-MES-1; first compound 15.81 µM) of the same molecule?
A: 0.901

Q: And the relative viability (SK-MES-1; first compound 50 µM)?
A: 0.843

Q: And the relative viability (SK-MES-1; first compound 158.11 µM)?
A: 0.831

Q: What about the relative viability (SK-MES-1; first compound 500 µM) of the same molecule?
A: 0.84

Q: And the relative viability (UMC-11; first compound 5 µM)?
A: 0.992

Q: And the relative viability (UMC-11; first compound 15.81 µM)?
A: 1.04

Q: What about the relative viability (UMC-11; first compound 50 µM) of the same molecule?
A: 0.995

Q: What about the relative viability (UMC-11; first compound 158.11 µM) of the same molecule?
A: 0.169

Q: And the relative viability (UMC-11; first compound 500 µM)?
A: 0.131
